Article PMC10415494, “Ga(III) pyridinecarboxylate complexes: potential analogues of the second generation of therapeutic Ga(III) complexes?” (Journal of Biological Inorganic Chemistry, 2023)

Assays:
any model microorganism = assay: Antimicrobial activity, macrodilution method, all model microorganisms together; format: cell-based; settings: free ligands, range 0.5–2.0 mM
Description: Cultures of bacteria (in Mueller–Hinton broth, MHB) and yeasts (in Sabouraud’s growth medium, SB) were incubated under shaking (250 rpm) at 37 °C. The growth of bacteria and yeasts was evaluated by measuring the absorbance of the growing cultures (A590) until the cultures reached the stationary growth phase. The effects of gallium(III) complexes on the growth of filamentous fungi Rhizopus oryzae (R. oryzae) CCM F-8284, Alternaria alternata (A. alternata) CCM F-128 and Microsporum gypseum (M. gypseum) CCM F-8342 (Czech Collection of Microorganisms) were observed by macrodilution method on solidified potato-dextrose growth medium (PDA). During culturing, the diameters of growing fungal colonies were measured at regular intervals. Briefly, the antimicrobial activity (bacteria and yeasts) gallium(III) complexes/ ligands were added to the microbial culture at the beginning of the cultivation-to the lag phase. Pure gallium(III) complexes/ligands were dissolved in DMSO. The final concentration of DMSO never exceeded 1.0 vol. % neither in control nor treated samples. Concentration of gallium(III) complexes used in experimental work for evaluation of antimicrobial activity was used in the range of 0.05–2 mM, for the free ligands in the range of 0.5–2.0 mM in all experiments. […] The IC50 values were evaluated from toxicity curves. All the obtained results of antimicrobial activity were compared to the activity of Ga(NO3)3.

[1] = Potentiometric determination of ligand protonation (dissociation) constants; format: physicochemical; settings: 25 °C, I(KNO3) = 0.1 M
Description: The stock solution of HPic and H2Dpic was prepared by dissolving in demineralized water (c(ligand) = 0.02 M). The gallium(III) ion solution was prepared from anhydrous gallium(III) nitrate (c(Ga^3+) = 0.05 M) and was standardized by back titration of excess of EDTA with zinc(II). Decarbonated potassium hydroxide solution (approx. 0.2 M) was used as a titrant that was standardized by potassium hydrogen phthalate (c(KHP) = 0.1 M). Standard inert electrolyte of nitric acid was used in all titrations (c(HNO3) = 0.03 M, I(HNO3/KNO3) = 0.1 M). Potentiometric measurements were carried out using a TitroLine 7000 dosage system with a BlueLine combination electrode (SI Analytics) in a glass vessel (5 mL) thermostated at 25 ± 0.1 °C at an ionic strength I(KNO3) = 0.1 M. Inert atmosphere was ensured by a constant flow of a nitrogen gas. Precise calibration of the electrode was carried out by the titration of 0.03 M HNO3 with 0.2 M KOH in the range –log[H^+] = 1.8–12.0, with the pH-meter yielding E values. The relation between E and –log[H^+] is expressed by Eq. (1) where the term E^0 contains the standard potentials of the electrode and the contribution of inert ions to the liquid-junction potential. The value S corresponds to the Nernstian slope, the value of which should be close to the theoretical value, and j1[H^+] and j2[OH^–] = j2Kw/[H^+] are contributions of the H^+ and OH^– ions, respectively, to the liquid-junction potential. The pKw value was 13.78 in Eq. (1).1 E=E^0-S-logH^++j1H^++j2Kw/H^+
The parameters j1 and j2 cause deviation from linear dependence between E and –log[H^+] only in strongly acidic and strongly alkaline solutions. The picolinic and dipicolinic acid protonation constants were determined with ligand concentration 0.004 M. The stability constants in the Ga-HPic and Ga-H2Dpic binary system were determined by the ligand concentrations 0.004 and the Ga^3+ concentration was 0.004, 0.002 and 0.001 M in dependence on the ligand to metal ratio.
The protonation constants β110, β210 are the concentration constants and are defined by β110 = [HL]/ [H][L], β210 = [H2L]/ [H]^2[L] (pK2 = logβ110, pK1 = logβ210- logβ110); the stability constants are defined by βrqp = [HrLqMp]/[H]^r[L]^q[M]^p. The equilibrium constants were obtained by fitting the titration data with OPIUM [23]. The following hydrolysis constants were used for the calculations: βpr = [Mp(OH)r^3−r][H]^r/[M]^p; log β11 = − 2.74; log β12 = − 7.0; log β13 = − 11.96; log β14 = − 15.52 [24].

With O=C(O)c1ccccn1 [HPic, picolinic acid] the “effect on the growth of any model microorganism” value (any model microorganism) was “did not affect the growth”, the “dissociation constant pK1” value [1] was 1.17 and the “dissociation constant pK2” value [1] was 5.25.
With O=C(O)c1cccc(C(=O)O)n1 [H2Dpic, dipicolinic acid] the “dissociation constant pK2” value [1] was 2.02 and the “dissociation constant pK3” value [1] was 4.74.
